Where no end group is shown, it is not given here.
tested on: AI4 CTL; experiment: 51Cr-release cytotoxicity assay, AI4 CTL against peptide-pulsed RMA-S target cells; format: cell-based, mouse; conditions: RMA-S target cells, E:T ratio of 40, lower peptide concentrations (FIG. 6B); read-out: half-maximal activity, AI4 cytotoxic response
Experimental: Cytotoxicity assays for screening of HPLC fractions and peptide libraries. AI4 CTL were generated by culturing splenocytes from NOD.AI4αβTg mice with IFN-γ-treated NIT-1 cells and 12.5 U/ml IL-2 as described (DiLorenzo et al., 2002). NY8.3 CTL were generated by culturing splenocytes from 8.3-NOD mice with mitomycin C-treated NOD splenocytes pulsed with 10 nM NRP-A7 peptide as described (DiLorenzo et al., 2002). CTL were used in 16 h ^51Cr-release cytotoxicity assays to test for recognition of peptide-pulsed target cells at an E:T ratio of 40:1 as described (DiLorenzo et al., 2002). TAP-deficient cell lines RMA-S, RMA-S/K^d, T2, and T2-K^d were used as targets. Synthetic peptides or peptide library mixes were used at concentrations indicated in the figures, and 1.6×10^9 NIT-1 cell equivalents of peptide were used for HPLC fraction screening assays.
Cytotoxicity Assay. AI4 CTL were generated by culturing splenocytes from NOD.AI4αβ Tg mice with IFN-γ-treated NIT-1β cells (Hamaguchi et al., 1991) and IL-2 as described (DiLorenzo et al., 2002). CTL were used in 16 h ^51Cr-release cytotoxicity assays to test for recognition of peptide-pulsed target cells at an effector to target ratio of 40:1 as described (DiLorenzo et al., 2002). TAP-deficient RMA-S cells (Kerre et al., 1986) were used as targets.

Row | Sequence | EC50 [nM]
1 | YAIENYLEL [MimA2, YAIENYLEL] | 0.01

same assay, conditions: RMA-S targets, peptide 0.1 nM to 1 μM (FIG. 11A)

Row | Sequence | AI4 CTL response to natural peptides with AI4-preferred motif
2 | RTSENYLEL [RLL9, natural peptide of MKIAA1569 protein] | nonreacting
3 | VMLENYTHL (listed as Mus musculus) [VML9, natural peptide, similar to KRAB zinc finger protein] | more weakly
4 | QYLENYLWM (listed as Mus musculus) [QM9, natural peptide of aquarius] | more weakly
5 | FTDESYLEL [FSL9, natural peptide of polymyositis/scleroderma autoantigen 2] | nonreacting
6 | HEAESYML [HL9, natural peptide of calcitonin receptor precursor] | nonreacting
7 | FQDENYLYL (listed as Mus musculus) [FNL9, natural peptide of DMK and MRCKβ] | mirroring that obtained with the Mim peptide
8 | EVVESYMYL [EL9, natural peptide, similar to 1,2-α-mannosidase IC] | nonreacting
9 | RLFENYIEL (listed as Mus musculus) [RIL9, natural peptide of exocyst complex component Sec5] | more weakly
10 | DMHENYMEM [DM9, natural peptide of X-linked lymphocyte regulated complex] | nonreacting
11 | VTLENYTHL [VTL9, natural peptide of hypothetical protein] | nonreacting
12 | TNKENYTEL [TL9, natural peptide of stromal cell derived factor receptor 1] | nonreacting

same assay, conditions: mimotope and alanine-substituted peptides, varying concentrations, E:T ratio of 40

Row | Sequence | AI4 cytotoxic response towards peptide-pulsed RMA-S target cells
13 | YFIENALEL [A6] | significantly lower responses
14 | YAIENYLEL [MimA2, YAIENYLEL] | strongest AI4 CTL response of all of the peptides
15 | YFIENYLAL [A8] | decreased
16 | YFIENYLEL [Mim, YFIENYLEL] | best response
17 | YFIENYAEL [A7] | decreased
18 | YFIANYLEL [A4] | significantly lower responses

tested on: T cells cultured from NOD islets; experiment: IFN-γ ELISPOT of T cells cultured from NOD islets with peptide-pulsed APC; format: cell-based, mouse; conditions: 1 μM peptide, T cells from pooled islets of 11-week-old NOD mice, 40 h
Experimental: ELISPOT assay. ELISPOT plates (MAHA S45 10; Millipore, Billerica, Mass.) were precoated with anti-murine IFN-γ Ab (R4-6A2; BD Biosciences Pharmingen, San Diego, Calif.) and blocked with 1% BSA (Fraction V, Sigma-Aldrich, St. Louis, Mo.) in PBS. APC (Mitomycin C-treated NOD splenocytes) were added at 2×10^4 cells/well and pulsed for 1 h with 1 μM of each peptide (MimA2, NRP-V7, INS-19, INS BC, GAD65206, GAD65546). Cultured islet T cells were added at 2×10^4 cells/well and plates were incubated at 37° C. for 40 h. IFN-γ secretion was detected with a second, biotinylated anti-murine IFN-γ Ab (XMG1.2; BD Biosciences Pharmingen, San Diego, Calif.). Spots were developed using streptavidin-alkaline phosphatase (Zymed Laboratories, Inc., South San Francisco, Calif.) and 5-bromo-4-chloro-3-indolyl-phosphate/nitroblue tetrazolium chloride substrate (Sigma-Aldrich, St. Louis, Mo.).
IFN-γ ELISPOT. ELISPOT plates (MAHA S45 10; Millipore) were coated with anti-murine IFN-γ Ab (R4-6A2; BD Biosciences Pharmingen) and blocked with 1% BSA (Sigma-Aldrich) in PBS. APC (Mitomycin C-treated NOD splenocytes) were added at 2×10^4 cells/well and pulsed with 1 μM peptide. Cultured islet T cells were added at 2×10^4 cells/well and plates were incubated at 37° C. for 40 h. Secreted IFN-γ was detected with a second, biotinylated anti-murine IFN-γ Ab (XMG1.2; BD Biosciences Pharmingen). Spots were developed using streptavidin-alkaline phosphatase (Zymed Laboratories) and 5-bromo-4-chloro-3-indolyl-phosphate/nitroblue tetrazolium chloride substrate (Sigma-Aldrich). For all incubation steps, plate bottoms were covered with aluminum foil to distribute heat uniformly across the plate as described (Kalyuzhny and Stark, 2001).

Row | Sequence | IFN-γ spots in response to peptide
19 | TYEIAPVFV (listed as Mus musculus) [GAD65206, murine glutamic acid decarboxylase 65 206-214] | unable to detect responses
20 | FQDENYLYL (listed as Mus musculus) [FNL9, natural peptide of DMK and MRCKβ] | recognized by a detectable population of T cells
21 | LYLVCGERL (listed as Mus musculus) [INS-L9, G9L variant of murine insulin B15-23] | detectable
22 | SYQPLGDKV (listed as Mus musculus) [GAD65546, murine GAD65 546-554 peptide] | unable to detect responses
23 | FYTPMSRREV (listed as Mus musculus) [INS BC, murine insulin 2 B25-C34] | No spots were detected
24 | KYNKANVFL (peptide NRP-V7) [mimotope peptide recognized by 8.3-like T cells] | detectable

molecular target: T1, H-2K^d (Mus musculus, UniProt P01902); experiment: not given; conditions: cited from earlier work
T1 sequence (P01902 22-368): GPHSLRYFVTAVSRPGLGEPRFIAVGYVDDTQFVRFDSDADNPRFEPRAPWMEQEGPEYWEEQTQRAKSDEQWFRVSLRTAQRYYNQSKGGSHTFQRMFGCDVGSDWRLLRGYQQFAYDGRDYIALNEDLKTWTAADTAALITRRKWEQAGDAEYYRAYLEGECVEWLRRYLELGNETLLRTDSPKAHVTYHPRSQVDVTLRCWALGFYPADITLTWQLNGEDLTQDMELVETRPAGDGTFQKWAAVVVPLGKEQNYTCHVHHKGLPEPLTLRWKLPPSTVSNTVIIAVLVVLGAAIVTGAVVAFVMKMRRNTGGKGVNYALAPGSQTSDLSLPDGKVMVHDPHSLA
T1 sequence (P01887 21-119 partner): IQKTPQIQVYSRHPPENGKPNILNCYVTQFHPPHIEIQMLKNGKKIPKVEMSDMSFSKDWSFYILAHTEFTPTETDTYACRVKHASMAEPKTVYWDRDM

Row | Sequence | binding to H-2K^d relative to insulin B15-23
25 | LYLVCGERI (listed as Mouse sp.) [INS-I9, G9I variant of murine insulin B15-23] | more stable binding
26 | LYLVCGERL (listed as Mus musculus) [INS-L9, G9L variant of murine insulin B15-23] | more stable binding
